Literature values as cited in PMC3526234 (Diabetes Care, 2012).

System: patients with diabetic gastroparesis
Conditions: intravenous erythromycin, 10 patients with diabetic gastroparesis

**Q.** Which “estimated effect relative to placebo on percent retained at 60 min” value does the source give for `CC[C@H]1OC(=O)[C@H](C)[C@@H](O[C@H]2C[C@@](C)(OC)[C@@H](O)[C@H](C)O2)[C@H](C)[C@@H](O[C@@H]2O[C@H](C)C[C@H](N(C)C)[C@H]2O)[C@](C)(O)C[C@@H](C)C(=O)[C@H](C)[C@@H](O)[C@]1(C)O` [erythromycin] here?
**A.** 75%
